In US20110294728A1, “Antiviral Polypeptides” (priority 2008, published 2011):
pEC50, pIC50, pKd: −log10 of the molar value. Values joined by “and” are separate entries in the source; they are usually repeats but may differ in a detail not shown here. Equal values may be shown once. Read-outs that look alike come from different tables or passages of the source. Where no end group is shown, it is not given here.

How the values were obtained:
IN/LEDGF complex = IN/LEDGF complex (Human immunodeficiency virus type 1 group M subtype B, UniProt P04585); assay: Dissociation of IN/LEDGF complex (AlphaScreen, immunoprecipitation); format: biochemical
Description: Dissociation of IN/LEDGF complex was measured by fluorescence resonance energy transfer (AlphaScreen® technology) and immunoprecipitation experiments: • Amplified Luminescent Proximity Homogeneous Assay (ALPHA): when the proteins (IN and LEDGF), linked to acceptor and donor beads, interact together (i.e., are into close proximity), a photosignal (a high amplified signal with output in the 520-560 nm range) is detected; when the proteins are not in close proximity, the reactive oxygen decays and there is no detectable signal generated; • immunoprecipitation (IP) was performed using polyclonal anti LEDGF antibodies (purchased from Santa Cruz Biotechnology, USA) and polyclonal HA antibodies (purchased from Eurogentec, Belgium). Cell line expression HA-tagged integrase was using for the experiment in the presence of increasing concentrations of peptide inhibitors.

HIV-1 strain NDK = conditions: peptide with Pep-1 or Pep-3 at ratio 20/1, combinations with Pep-3
HIV-1-LAI strain = system: HIV-1-LAI strain
Description: The anti-HIV activities of the peptides were assayed according to the methods described in Roisin et al. (2004). Phytohemagglutinin-P(PHA-P)-activated peripheral blood mononuclear cells (PBMC) treated by increasing concentrations of peptide (from 100 to 0.1 nM), one hour later, were infected with hundred 50% tissue culture infectious doses (TCID50) per 100,000 cells of the HIV-1-LAI strain (Barre-Sinoussi et al., 1983). This virus was amplified in vitro on PHA-P-activated PBMC. Viral stock was titrated using PHA-P-activated PBMC, and 50% TCID50 were calculated using Kärber's formula (Kärber, 1931). Samples were maintained throughout the culture, and cell supernatants were collected at day 7 post-infection and stored at −20° C. Viral replication was measured by quantifying reverse transcriptase (RT) activity in cell culture supernatants. In parallel, cytotoxicity of the compounds was evaluated in uninfected PHA-P-activated PBMC by colorimetric 3-(4-5 dimethylthiazol-2-yl)2,5diphenyl tetrazolium bromite (MTT) assay on day 7 (as described in Mossmann, 1983). Experiments were performed in triplicate and repeated with another blood donor. Data analyses were performed using SofiMax® Pro 4.6 microcomputer software: percent of inhibition of RT activity or of cell viability were plotted vs concentration and fitted with quadratic curves; 50% effective doses (ED50) and cytotoxic doses (CD50) were calculated.
In order to avoid any limitation due to the poor ability of peptides to cross cellular membranes, they were associated to the peptide-based nanoparticle delivery system Pep-1 (SEQ ID NO: 29), at a 1/10 molar ratio.

HIV-1 strain BH10 = conditions: peptide with Pep-1 or Pep-3 at ratio 20/1, combinations with Pep-3
HIV-1 integrase = biological target: T1, HIV-1 integrase (Human immunodeficiency virus type 1 group M subtype B, UniProt P04585); assay: biochemical; format: binding
T1 construct: Integrase is a 32 kDA viral protein that is biologically active under a multimeric form
Description: Fluorescein-labeled peptides (40 nM) were mixed with varying concentrations of integrase in 20 mM Tris pH 7.2, 50 mM NaCl, 10 mM MgCl2, and the r values were recorded.
Effect of the different peptides on the integrase (IN) activity, DNA binding and IN/DNA dissociation were evaluated as described in Example III.1 above, using fluorescence polarization and anisotropy measurements. Binding constant of the peptide for IN was determined by steady state fluorescence and anisotropy.

[1] = system: efavirenz-resistance HIV strain harbouring K103N and N341V mutations on reverse transcriptase; format: in vivo, Hu-PBL-SCID transgenic mice; conditions: EFZ resistance strain; 20 mg/kg/day; peptides formulated with CADY-2c/CADY-1S1
Description: The potency of the peptides p27 (SEQ ID NO: 25) and p16 (SEQ ID NO: 19) was assessed in vivo following intravenous challenge of Hu-PBL-SCID transgenic mice (in which human (hu) peripheral blood leukocytes (PBLs) from healthy Epstein-Barr virus (EBV)-seropositive donors are injected into severe combined immunodeficiency (SCID) mice; Mosier et al., 1988). The mice (6 to 8 week-old male mice, 5 animals per group) were infected with wild type HIV 1 virus or efavirenz-resistance HIV strain harbouring K103N and N341V mutations on reverse transcriptase. Infected mice were treated with peptides formulated with the peptide vector CADY-2c (see above) in water at a ratio 1/20, and then particles were coated with 3% of CADY-1S1 (see above), as described in International Application WO 2007/069090. Particles were injected intravenously (100 μl) every 2 days for 1 week, then HIV-1 copy were quantified by quantitative PCR. Efavirenz (a non-nucleoside reverse transcriptase inhibitor; EFZ) was used a positive drug control.

HIV-1 74V = format: cell-based; conditions: resistant to ddI and ddC
HIV-1 215Y = format: cell-based; conditions: AZT-resistant
[2] = read-out: EC50 HIV-1 lai, Table 10

Sequence	pEC50 (IN/LEDGF complex)	pIC50 (HIV-1 strain NDK)	pEC50 (HIV-1-LAI strain; [2])	pIC50 (HIV-1 strain BH10)	pKd (HIV-1 integrase)	reduction of viral propagation [1] [%]	pIC50 (HIV-1 74V)	pEC50 (HIV-1-LAI strain; PBMC, HIV-1 LAI, day 7, /Pep-1 = associated to Pep-1 at 1/10 molar ratio)	pIC50 (HIV-1-LAI strain; read-out: IC50, antiviral activity, text b123, peptide with Pep-1)	Kd (HIV-1 integrase; read-out: Kd IN binding, Table 10, cell prints μM) [µM]	pIC50 (HIV-1 215Y)
GTKWLTEVWPL [Peptide P16]	6.10	8.54	8.23	8.23	6.92	58	–	–	–	–	–
GTKWLTEWIPLTAE [Peptide P27]	–	9.52	9.68	8.85	< 4.00	72	8.42 and 8.31	< 6.00	> 9.49	> 100	8.57 and 8.41
